Read-outs that look alike come from different tables or passages of the source.
Target: T1, hmGlu5 (Homo sapiens, UniProt P41594)
T1 construct: expressed in transfected cells; host or cells: HEK 293A
Assay: mGlu5 Ca2+ flux assay in HEK 293A cells (negative allosteric modulation of glutamate EC80 response)
Assay type: cell-based
Details: for remaining activity at 30 µM: HEK293-A, read-out: hmGlu5 NAM Emin (%); for IC50: HEK 293A cells, Ca2+ flux, glutamate EC80, >10,000 = decrease without plateau, read-out: hmGlu5 NAM IC50
Procedure, shortened: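 HEK 293A cells stably expressing rat or human mGlu5, Fluo-4 AM loaded; compound added 2.3 min before glutamate EC20, then EC80; Ca2+ fluorescence peak amplitudes (F/F0) normalised to glutamate max. IC50 from 4-parameter logistic fit, 10-point 1:3 curves, top 30 μM; partial NAMs plateau above 10% Glu Max.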

T1 sequence (P41594 21-1212): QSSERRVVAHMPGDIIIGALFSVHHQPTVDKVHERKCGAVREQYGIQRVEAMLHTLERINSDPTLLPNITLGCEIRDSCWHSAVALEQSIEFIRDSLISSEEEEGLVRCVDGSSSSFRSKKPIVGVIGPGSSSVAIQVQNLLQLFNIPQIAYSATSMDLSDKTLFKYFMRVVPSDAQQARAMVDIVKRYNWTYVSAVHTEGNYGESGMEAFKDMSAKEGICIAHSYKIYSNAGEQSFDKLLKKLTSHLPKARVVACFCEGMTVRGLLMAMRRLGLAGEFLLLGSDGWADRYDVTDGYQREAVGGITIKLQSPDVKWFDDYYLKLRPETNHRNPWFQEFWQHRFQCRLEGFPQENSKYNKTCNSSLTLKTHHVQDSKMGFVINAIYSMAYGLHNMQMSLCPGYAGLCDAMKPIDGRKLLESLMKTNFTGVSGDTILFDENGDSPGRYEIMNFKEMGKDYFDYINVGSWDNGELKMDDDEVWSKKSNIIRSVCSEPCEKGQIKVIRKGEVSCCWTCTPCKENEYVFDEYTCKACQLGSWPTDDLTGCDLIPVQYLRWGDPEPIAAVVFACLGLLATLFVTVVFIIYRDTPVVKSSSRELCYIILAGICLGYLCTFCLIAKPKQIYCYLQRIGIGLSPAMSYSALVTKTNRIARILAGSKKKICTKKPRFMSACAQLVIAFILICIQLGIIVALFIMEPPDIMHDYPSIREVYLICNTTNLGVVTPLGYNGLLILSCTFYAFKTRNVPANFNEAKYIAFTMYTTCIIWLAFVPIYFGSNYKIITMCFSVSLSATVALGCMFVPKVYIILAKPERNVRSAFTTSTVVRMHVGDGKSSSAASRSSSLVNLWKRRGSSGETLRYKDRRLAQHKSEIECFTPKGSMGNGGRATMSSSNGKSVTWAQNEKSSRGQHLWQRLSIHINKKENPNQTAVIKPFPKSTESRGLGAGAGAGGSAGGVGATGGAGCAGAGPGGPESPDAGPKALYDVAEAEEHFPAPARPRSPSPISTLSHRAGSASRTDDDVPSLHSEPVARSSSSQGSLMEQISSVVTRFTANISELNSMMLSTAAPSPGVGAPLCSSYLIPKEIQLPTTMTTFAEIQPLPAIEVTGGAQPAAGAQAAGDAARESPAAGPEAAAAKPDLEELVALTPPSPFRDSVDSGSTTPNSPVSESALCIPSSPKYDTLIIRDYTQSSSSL

SMILES | remaining activity at 30 µM (% Glu max at 30 μM) [%] | IC50 [nM] | remaining activity at 30 µM [%]
Cc1nc(-c2nnc(-c3ccc(F)cn3)o2)cc(-c2cncc(F)c2)c1OC(C)C [Compound 45, 2-(5-fluoro-5′-isopropoxy-6′-methyl-[3,4′-bipyridin]-2′-yl)-5-(5-fluoropyridin-2-yl)-1,3,4-oxadiazole] | 2 | 946 | 
Cc1ccncc1-c1cc(-c2noc(-c3ccc(Cl)cn3)n2)nc(C)c1F [Compound 26, 5-(5-chloropyridin-2-yl)-3-(5′-fluoro-4,6′-dimethyl-[3,4′-bipyridin]-2′-yl)-1,2,4-oxadiazole] | 2 | 575 | 
Cc1cc(O[C@@H]2CCOC2)cc(-c2noc(-c3nc(C)cs3)n2)n1 [Compound 106, (R)-3-(6-methyl-4-((tetrahydrofuran-3-yl)oxy)pyridin-2-yl)-5-(4-methylthiazol-2-yl)-1,2,4-oxadiazole] | 2 | 387 | 
Cc1ccc(-c2nnc(-c3cc(-c4cncc(F)c4)c(F)c(C)n3)o2)nc1 [Compound 57, 2-(5,5′-difluoro-6′-methyl-[3,4′-bipyridin]-2′-yl)-5-(5-methylpyridin-2-yl)-1,3,4-oxadiazole] |  | 1080 | 4
COc1c(-c2cnn(C(F)F)c2)cc(-c2noc(-c3ccc(F)cn3)n2)nc1C [Compound 12, 3-(4-(1-(difluoromethyl)-1H-pyrazol-4-yl)-5-methoxy-6-methylpyridin-2-yl)-5-(5-fluoropyridin-2-yl)-1,2,4-oxadiazole] | 2 | 1110 | 
Cc1nc(-c2noc(-c3cccnc3)n2)cc(-c2cncc(F)c2)c1F [Compound 50, 3-(5,5′-difluoro-6′-methyl-[3,4′-bipyridin]-2′-yl)-5-(pyridin-3-yl)-1,2,4-oxadiazole] | 34 | 1560 | 
COCCOc1c(-c2cncc(F)c2)cc(-c2noc(-c3ccc(F)cn3)n2)nc1C [Compound 54, 3-(5-fluoro-5′-(2-methoxyethoxy)-6′-methyl-[3,4′-bipyridin]-2′-yl)-5-(5-fluoropyridin-2-yl)-1,2,4-oxadiazole] | 3 | 562 | 
Cc1ccncc1-c1cc(-c2noc(C(F)c3ccccc3)n2)nc(C)c1F (stereo not drawn) [Compound 89, 5-(fluoro(phenyl)methyl)-3-(5′-fluoro-4,6′-dimethyl-[3,4′-bipyridin]-2′-yl)-1,2,4-oxadiazole] | 3 | 3600 | 
Cc1cncc(-c2nc(-c3cc(-c4cnccc4C)c(F)c(C)n3)no2)c1 [Compound 87, 3-(5′-fluoro-4,6′-dimethyl-[3,4′-bipyridin]-2′-yl)-5-(5-methylpyridin-3-yl)-1,2,4-oxadiazole] | 13 | 4290 | 
Cc1ccncc1-c1cc(-c2nc(-c3cccc(F)c3)c[nH]2)nc(C)c1F [Compound 63, 3′-fluoro-6′-(4-(3-fluorophenyl)-1H-imidazol-2-yl)-2′,4-dimethyl-3,4′-bipyridine] | 4 | 1090 | 
Cc1nc(-c2nnc(-c3ccccn3)o2)cc(-c2cncc(F)c2)c1F [Compound 79, 2-(5,5′-difluoro-6′-methyl-[3,4′-bipyridin]-2′-yl)-5-(pyridin-2-yl)-1,3,4-oxadiazole] |  | 673 | 2
Cc1nc(-c2noc(-c3ccc(F)cn3)n2)cc(-c2ccc(C3CC3)nc2)c1F [Compound 31, 3-(6-cyclopropyl-5′-fluoro-6′-methyl-[3,4′-bipyridin]-2′-yl)-5-(5-fluoropyridin-2-yl)-1,2,4-oxadiazole] | 20 | 3090 | 
COc1c(-c2cncc(F)c2)cc(-c2noc(-c3ccc(F)cn3)n2)nc1C [Compound 11, 3-(5-fluoro-5′-methoxy-6′-methyl-[3,4′-bipyridin]-2′-yl)-5-(5-fluoropyridin-2-yl)-1,2,4-oxadiazole] | 2 | 452 | 
Cc1nc(-c2noc(-c3ccncc3)n2)cc(-c2cncc(F)c2)c1F [Compound 51, 3-(5,5′-difluoro-6′-methyl-[3,4′-bipyridin]-2′-yl)-5-(pyridin-4-yl)-1,2,4-oxadiazole] | 12 | 1070 | 
Cc1nc(-c2noc(C3CCCCC3)n2)cc(-c2cncc(F)c2)c1F [Compound 36, 5-cyclohexyl-3-(5,5′-difluoro-6′-methyl-[3,4′-bipyridin]-2′-yl)-1,2,4-oxadiazole] | 51 | > 10000 | 
Cc1nc(-c2noc(-c3cccc(Cl)c3)n2)cc(-c2cncc(F)c2)c1F [Compound 44, 5-(3-chlorophenyl)-3-(5,5′-difluoro-6′-methyl-[3,4′-bipyridin]-2′-yl)-1,2,4-oxadiazole] |  | 5800 | 34
Cc1nc(-c2noc(-c3ccc(F)cn3)n2)cc(-c2cc(F)cnc2Cl)c1F [Compound 32, 3-(2-chloro-5,5′-difluoro-6′-methyl-[3,4′-bipyridin]-2′-yl)-5-(5-fluoropyridin-2-yl)-1,2,4-oxadiazole] | 3 | 359 | 
COc1c(-c2cnccc2C)cc(-c2noc(-c3ccc(F)cn3)n2)nc1C [Compound 10, 5-(5-fluoropyridin-2-yl)-3-(5′-methoxy-4,6′-dimethyl-[3,4′-bipyridin]-2′-yl)-1,2,4-oxadiazole] | 2 | 641 | 
Cc1cc(F)nc(-c2cc(-c3noc(-c4ccc(F)cn4)n3)nc(C)c2F)c1 [Compound 66, 3-(5′,6-difluoro-4,6′-dimethyl-[2,4′-bipyridin]-2′-yl)-5-(5-fluoropyridin-2-yl)-1,2,4-oxadiazole] | 9 | 1890 | 
Cc1ccncc1-c1cc(-c2noc(-c3ncccc3F)n2)ncc1F [Compound 2, 3-(5′-fluoro-4-methyl-[3,4′-bipyridin]-2′-yl)-5-(3-fluoropyridin-2-yl)-1,2,4-oxadiazole] | 25 | 2630 | 
Cc1ccc(-c2cc(-c3nnc(-c4ccc(F)cn4)o3)nc(C)c2F)c(C)n1 [Compound 111, 2-(5′-fluoro-2,6,6′-trimethyl-[3,4′-bipyridin]-2′-yl)-5-(5-fluoropyridin-2-yl)-1,3,4-oxadiazole] | 2 | 1530 | 
Cc1cc(CC2CCOC2)cc(-c2noc(-c3ccc(F)cn3)n2)n1 (stereo not drawn) [Compound 86, 5-(5-fluoropyridin-2-yl)-3-(6-methyl-4-((tetrahydrofuran-3-yl)methyl)pyridin-2-yl)-1,2,4-oxadiazole] | 1 | 766 | 

Now those with a lower IC50, led by results:

remaining activity at 30 µM (% Glu max at 30 μM) [%] | IC50 [nM] | SMILES | remaining activity at 30 µM [%]
2 | 339 | COc1c(-c2cncc(F)c2)cc(-c2nc(-c3ccc(F)cn3)no2)nc1C [Compound 14, 5-(5-fluoro-5′-methoxy-6′-methyl-[3,4′-bipyridin]-2′-yl)-3-(5-fluoropyridin-2-yl)-1,2,4-oxadiazole] | 
2 | 304 | Cc1nc(-c2noc(-c3ccc(F)cn3)n2)cc(-c2cncc(F)c2C)c1F [Compound 41, 3-(5,5′-difluoro-4,6′-dimethyl-[3,4′-bipyridin]-2′-yl)-5-(5-fluoropyridin-2-yl)-1,2,4-oxadiazole] | 
2 | 300 | COc1c(-c2cncc(F)c2)cc(-c2n[nH]c(-c3ccccc3F)n2)nc1C [Compound 100, 5-fluoro-6′-(5-(2-fluorophenyl)-1H-1,2,4-triazol-3-yl)-3′-methoxy-2′-methyl-3,4′-bipyridine] | 
2 | 233 | Cc1ccncc1-c1cc(-c2noc(-c3ccccn3)n2)nc(C)c1F [Compound 19, 3-(5′-fluoro-4,6′-dimethyl-[3,4′-bipyridin]-2′-yl)-5-(pyridin-2-yl)-1,2,4-oxadiazole] | 
3 | 206 | Cc1nc(-c2noc(-c3ccc(F)cn3)n2)cc(-c2cc(Cl)cc(C#N)c2)c1F [Compound 70, 3-chloro-5-(3-fluoro-6-(5-(5-fluoropyridin-2-yl)-1,2,4-oxadiazol-3-yl)-2-methylpyridin-4-yl)benzonitrile] | 
2 | 185 | Cc1nc(-c2nnc(-c3ccc(F)cn3)o2)cc(-c2cnsc2)c1F [Compound 110, 2-(5-fluoro-4-(isothiazol-4-yl)-6-methylpyridin-2-yl)-5-(5-fluoropyridin-2-yl)-1,3,4-oxadiazole] | 
2 | 148 | Cc1nc(-c2nnc(-c3ccc(F)cn3)o2)cc(-c2cnn(C(F)F)c2)c1F [Compound 74, 2-(4-(1-(difluoromethyl)-1H-pyrazol-4-yl)-5-fluoro-6-methylpyridin-2-yl)-5-(5-fluoropyridin-2-yl)-1,3,4-oxadiazole] | 
3 | 138 | Cc1nc(-c2nnc(-c3ccc(F)cn3)o2)cc(-c2cnccc2Cl)c1F [Compound 77, 2-(4-chloro-5′-fluoro-6′-methyl-[3,4′-bipyridin]-2′-yl)-5-(5-fluoropyridin-2-yl)-1,3,4-oxadiazole] | 
2 | 85 | Cc1ccncc1-c1cc(-c2noc(-c3cccc(C#N)c3)n2)nc(C)c1F [Compound 24, 3-(3-(5′-fluoro-4,6′-dimethyl-[3,4′-bipyridin]-2′-yl)-1,2,4-oxadiazol-5-yl)benzonitrile] | 
2 | 59 | Cc1nc(-c2noc(-c3ccc(F)cn3)n2)cc(-c2cncc(F)c2)c1F [Compound 6, 3-(5,5′-difluoro-6′-methyl-[3,4′-bipyridin]-2′-yl)-5-(5-fluoropyridin-2-yl)-1,2,4-oxadiazole] | 
2 | 47 | Cc1nc(-c2n[nH]c(-c3ccc(F)cc3)n2)cc(-c2cncc(F)c2)c1F [Compound 99, 3′,5-difluoro-6′-(5-(4-fluorophenyl)-1H-1,2,4-triazol-3-yl)-2′-methyl-3,4′-bipyridine] | 

Reference: patent US20250026743A1, “HETEROARYL-LINKED ANALOGS AS MGLU5 NEGATIVE ALLOSTERIC MODULATORS AND METHODS OF MAKING AND USING THE SAME” (Vanderbilt University, priority 2021, published 2025)
